In the NIST ThermoML archive (doi:10.1016/j.jct.2017.07.008):
Several values for one entry are separate records, joined by “and”; a condition that tells them apart may be missing. Identical values can stand only once.

Conditions: for mass density / viscosity / speed of sound / vapor or sublimation pressure: Liquid; for mass density: Vibrating tube method; for surface tension liquid-gas: Drop volume; for viscosity: Capillary tube (Ostwald / Ubbelohde) method; for speed of sound: Frequency=3 MHz, Single path-length method; for vapor or sublimation pressure: Ebulliometric method (Recirculating still)

O=Cc1cccs1 [2-thiophenealdehyde]
Conditions	mass density	speed of sound [m/s]	viscosity [mPa·s]
313.15 K, 65000 kPa	1238.47 kg/m3	–	–
315.65 K, 100 kPa	1199.69 kg/m3	1404.1	1.528
318.15 K, 100 kPa	1197.17 kg/m3 and 1197.16 kg/m3	1395.9	1.473
318.15 K, 2000 kPa	1198.45 kg/m3	–	–
318.15 K, 5000 kPa	1200.45 kg/m3	–	–
318.15 K, 7000 kPa	1201.76 kg/m3	–	–
318.15 K, 10000 kPa	1203.7 kg/m3	–	–
318.15 K, 15000 kPa	1206.86 kg/m3	–	–
318.15 K, 20000 kPa	1209.92 kg/m3	–	–
318.15 K, 25000 kPa	1212.9 kg/m3	–	–
318.15 K, 30000 kPa	1215.8 kg/m3	–	–
318.15 K, 35000 kPa	1218.62 kg/m3	–	–
318.15 K, 40000 kPa	1221.37 kg/m3	–	–
318.15 K, 45000 kPa	1224.05 kg/m3	–	–
318.15 K, 50000 kPa	1226.67 kg/m3	–	–
318.15 K, 55000 kPa	1229.23 kg/m3	–	–
318.15 K, 60000 kPa	1231.73 kg/m3	–	–
318.15 K, 65000 kPa	1234.18 kg/m3	–	–
320.65 K, 100 kPa	1194.65 kg/m3	1387.6	1.418
323.15 K, 100 kPa	1192.12 kg/m3	1379.3	1.375
323.15 K, 2000 kPa	1193.44 kg/m3	–	–
323.15 K, 5000 kPa	1195.49 kg/m3	–	–
323.15 K, 7000 kPa	1196.83 kg/m3	–	–
323.15 K, 10000 kPa	1198.82 kg/m3	–	–
323.15 K, 15000 kPa	1202.04 kg/m3	–	–
323.15 K, 20000 kPa	1205.17 kg/m3	–	–
323.15 K, 25000 kPa	1208.22 kg/m3	–	–
323.15 K, 30000 kPa	1211.17 kg/m3	–	–
323.15 K, 35000 kPa	1214.05 kg/m3	–	–
323.15 K, 40000 kPa	1216.86 kg/m3	–	–
323.15 K, 45000 kPa	1219.59 kg/m3	–	–
323.15 K, 50000 kPa	1222.26 kg/m3	–	–
323.15 K, 55000 kPa	1224.86 kg/m3	–	–
323.15 K, 60000 kPa	1227.41 kg/m3	–	–
323.15 K, 65000 kPa	1229.89 kg/m3	–	–
325.65 K, 100 kPa	1189.6 kg/m3	1371.1	1.325
328.15 K, 100 kPa	1187.08 kg/m3 and 1187.07 kg/m3	1362.8	1.275
328.15 K, 2000 kPa	1188.42 kg/m3	–	–
328.15 K, 5000 kPa	1190.52 kg/m3	–	–
328.15 K, 7000 kPa	1191.9 kg/m3	–	–
328.15 K, 10000 kPa	1193.93 kg/m3	–	–
328.15 K, 15000 kPa	1197.23 kg/m3	–	–
328.15 K, 20000 kPa	1200.43 kg/m3	–	–
328.15 K, 25000 kPa	1203.54 kg/m3	–	–
328.15 K, 30000 kPa	1206.56 kg/m3	–	–
328.15 K, 35000 kPa	1209.49 kg/m3	–	–
328.15 K, 40000 kPa	1212.35 kg/m3	–	–
328.15 K, 45000 kPa	1215.13 kg/m3	–	–
328.15 K, 50000 kPa	1217.85 kg/m3	–	–
328.15 K, 55000 kPa	1220.5 kg/m3	–	–
328.15 K, 60000 kPa	1223.09 kg/m3	–	–
328.15 K, 65000 kPa	1225.62 kg/m3	–	–
330.65 K, 100 kPa	1184.55 kg/m3	1354.6	1.233
333.15 K, 100 kPa	1182.02 kg/m3	1346.4	1.194
333.15 K, 2000 kPa	1183.41 kg/m3	–	–
333.15 K, 5000 kPa	1185.56 kg/m3	–	–
333.15 K, 7000 kPa	1186.96 kg/m3	–	–
333.15 K, 10000 kPa	1189.04 kg/m3	–	–
333.15 K, 15000 kPa	1192.42 kg/m3	–	–
333.15 K, 20000 kPa	1195.69 kg/m3	–	–
333.15 K, 25000 kPa	1198.86 kg/m3	–	–
333.15 K, 30000 kPa	1201.94 kg/m3	–	–
333.15 K, 35000 kPa	1204.93 kg/m3	–	–
333.15 K, 40000 kPa	1207.85 kg/m3	–	–
333.15 K, 45000 kPa	1210.68 kg/m3	–	–
333.15 K, 50000 kPa	1213.45 kg/m3	–	–
333.15 K, 55000 kPa	1216.14 kg/m3	–	–
333.15 K, 60000 kPa	1218.77 kg/m3	–	–
333.15 K, 65000 kPa	1221.34 kg/m3	–	–
335.65 K, 100 kPa	1179.49 kg/m3	1338.2	1.155
338.15 K, 100 kPa	1176.97 kg/m3	1330.2	1.121
338.15 K, 2000 kPa	1178.39 kg/m3	–	–
338.15 K, 5000 kPa	1180.59 kg/m3	–	–
338.15 K, 7000 kPa	1182.03 kg/m3	–	–
338.15 K, 10000 kPa	1184.16 kg/m3	–	–
338.15 K, 15000 kPa	1187.61 kg/m3	–	–
338.15 K, 20000 kPa	1190.94 kg/m3	–	–
338.15 K, 25000 kPa	1194.18 kg/m3	–	–
338.15 K, 30000 kPa	1197.32 kg/m3	–	–
338.15 K, 35000 kPa	1200.37 kg/m3	–	–
338.15 K, 40000 kPa	1203.34 kg/m3	–	–
338.15 K, 45000 kPa	1206.23 kg/m3	–	–
338.15 K, 50000 kPa	1209.04 kg/m3	–	–
338.15 K, 55000 kPa	1211.78 kg/m3	–	–
338.15 K, 60000 kPa	1214.46 kg/m3	–	–
338.15 K, 65000 kPa	1217.07 kg/m3	–	–

Conditions	surface tension liquid-gas [mN/m]	vapor or sublimation pressure [kPa]
315.65 K	43.89	–
318.15 K	43.6	–
320.65 K	43.28	–
323.15 K	43.01	–
325.65 K	42.68	–
328.15 K	42.39	–
330.65 K	42.09	–
333.15 K	41.76	–
335.65 K	41.46	–
336.42 K	–	0.66
338.15 K	41.21	–
340.7 K	–	0.85
345.63 K	–	1.135
349.65 K	–	1.4
353.7 K	–	1.725
356.19 K	–	1.915
359.55 K	–	2.265
361.67 K	–	2.55
364.68 K	–	2.925
366.94 K	–	3.265
368.98 K	–	3.6
372.07 K	–	4.14
374.68 K	–	4.645
376.79 K	–	5.065
377.74 K	–	5.3
379.92 K	–	5.8
382.69 K	–	6.5
386.72 K	–	7.585
389.41 K	–	8.415
391.94 K	–	9.285
394.82 K	–	10.41
399.42 K	–	12.29
401.02 K	–	13.11
403 K	–	14.06
404.9 K	–	15.05
407.06 K	–	16.14
408.95 K	–	17.25
411.16 K	–	18.6
412.82 K	–	19.66
413.9 K	–	20.41
415.91 K	–	21.8
418.01 K	–	23.36
420.05 K	–	24.95
422.07 K	–	26.6
424.04 K	–	28.25
426.15 K	–	30.11
428.14 K	–	32.01
429.02 K	–	32.92
430.17 K	–	34.05
431.54 K	–	35.47
433.17 K	–	37.2
